One may read the melting point as the temperature of the solid-liquid transition.

`O=C(NO)C1CCc2ccc(OCc3ccccn3)cc2O1` (stereo not shown) [Compound 50c, N-Hydroxy-7-(pyridin-2-ylmethoxy)chromane-2-carboxamide]: the melting point was 125 to 128 °C.

The compound `O=C(NO)C1CCc2cc(C#CCOC(=O)N3CCc4ccccc4C3)ccc2O1` (stereo not shown) [Compound 36, 3-(2-(Hydroxycarbamoyl)chroman-6-yl)prop-2-yn-1-yl 3,4-dihydroisoquinoline-2(1H)-carboxylate] registered a melting point of 90 to 92 °C. The value for `Cl.O=C(CN1CCC2(CCc3cc(F)ccc3O2)CC1)NO` was 200 to 203 °C; that for `Cn1ccc2cc(-c3ccc4c(c3)OC(C(=O)NO)CC4)ccc21` (stereo not shown) [Compound 58b, N-Hydroxy-7-(1-methyl-1H-indol-5-yl)chromane-2-carboxamide] was 155 to 158 °C; that for `O=C(NO)C1CCc2cccc(NS(=O)(=O)c3ccc(F)cc3)c2O1` (stereo not shown) [Compound 11m, 8-((4-Fluorophenyl)sulfonamido)-N-hydroxychromane-2-carboxamide] was 237 to 239 °C.

As to `COc1ccc(COC(=O)Nc2ccc3c(c2)CCC(C(=O)NO)O3)cc1` (stereo not shown) [Compound 14j, 4-Methoxybenzyl (2-(hydroxycarbamoyl)chroman-6-yl)carbamate], the melting point lay in the range of 149 to 151 °C.

`O=C(Nc1cccc2c1O[C@H](C(=O)NO)CC2)OCc1ccc(Cl)cc1` [Compound 11h, 4-Chlorobenzyl (S)-(2-(hydroxycarbamoyl)chroman-8-yl)carbamate] registered a melting point of 155 to 157 °C.

Consider `O=C(NO)C1CCc2ccc(O)cc2O1` (stereo not shown) [Compound 55, N,7-Dihydroxychromane-2-carboxamide], for which the melting point lay in the range of 174 to 176 °C. In the case of `O=C(NO)C1CCc2cc(-c3ccc(-c4ccccc4)cc3)ccc2O1` (stereo not shown) [Compound 44a, 6-([1,1′-Biphenyl]-4-yl)-N-hydroxychromane-2-carboxamide] it was 218 to 219 °C; in that of `COc1cccc(COC(=O)Nc2cccc3c2O[C@H](C(=O)NO)CC3)c1` [Compound 11g, 3-methoxybenzyl (S)-(2-(hydroxycarbamoyl)chroman-8-yl)carbamate], 71 to 73 °C. `O=C(NO)C1CCc2cc(Cl)ccc2O1` (stereo not shown) [Compound 90, 6-Chloro-N-hydroxychromane-2-carboxamide] registered a melting point of 160 to 162 °C.

With `CC(C)NC(=O)ONC(=O)C1CCc2cc(NC(=O)c3ccc(-c4ccccc4)cc3)ccc2O1` (stereo not shown) [Compound 15, 6-([1,1′-Biphenyl]-4-carboxamido)-N-((isopropylcarbamoyl)oxy)chromane-2-carboxamide], the melting point was 200 °C (dec.). The value for `CS(=O)(=O)Nc1cccc2c1OC(C(=O)NO)CC2` (stereo not shown) [Compound 11o, N-Hydroxy-8-(methylsulfonamido)chromane-2-carboxamide] was 181 to 183 °C.

In turn, `O=C(NO)C1CCc2cc(-c3ccc(Cl)c(Cl)c3)ccc2O1` (stereo not shown) [Compound 44c, 6-(3,4-Dichlorophenyl)-N-hydroxychromane-2-carboxamide] yielded a melting point of 89 to 91 °C. `CO[C@@H]1C[C@@H](C(=O)NO)Oc2ccccc21` (relative stereo) [Compound 85, (rel)-(2S,4R)—N-Hydroxy-4-methoxychromane-2-carboxamide]: the melting point was in the range of 102 to 104 °C. Consider `O=C(NCc1ccc(Cl)c(C(F)(F)F)c1)Nc1cccc2c1OC(C(=O)NO)CC2` (stereo not shown) [Compound 14i, 8-(3-(4-Chloro-3-(trifluoromethyl)benzyl)ureido)-N-hydroxychromane-2-carboxamide], for which the melting point lay in the range of 195 to 197 °C.

In turn, `O=C(Nc1ccc(F)cc1)Nc1cccc2c1OC(C(=O)NO)CC2` (stereo not shown) [Compound 11c, 8-(3-(4-Fluorophenyl)ureido)-N-hydroxychromane-2-carboxamide] came in with a melting point of 231 to 232 °C.

For `C#Cc1ccc2c(c1)CCC(C(=O)NO)O2` (stereo not shown) [Compound 19, 6-ethynyl-N-hydroxychromane-2-carboxamide], the melting point fell in the range of 161 to 163 °C.

For `O=C(NO)C1CCc2cc(NS(=O)(=O)c3cc(Cl)cc(Cl)c3)ccc2O1` (stereo not shown) [Compound 14n, 6-((3,5-Dichlorophenyl)sulfonamido)-N-hydroxychromane-2-carboxamide], the melting point was in the range of 156 to 170 °C.

The values above are taken from US20240051931A1, “HDAC INHIBITORS” (University of Pittsburgh - Of the Commonwealth System of …, priority 2020, published 2024).
